Data: the NIST ThermoML archive (doi:10.1016/j.jct.2008.01.024)

How the values were obtained:
[1] = Liquid; for mass density: 298.15 K, 101.33 kPa; for vapor or sublimation pressure: Ebulliometric method (Recirculating still)
[2] = excess molar enthalpy (molar enthalpy of mixing); xn = mol fraction of the nth substance listed; conditions: 101 kPa, Liquid, Flow calorimetry

ClCCCl [1,2-dichloroethane]
Conditions	mass density [kg/m3]
[1]	1245.6

Conditions	vapor or sublimation pressure [kPa]
[1], 313.15 K	20.75

ClCCCl [1,2-dichloroethane] + CN1CCCC1=O
excess molar enthalpy [kcal/mol], [2]
Conditions	298.15 K	308.15 K
x2 = 0.057	-0.0545	–
x2 = 0.058	–	-0.0578
x2 = 0.105	-0.111	–
x2 = 0.107	–	-0.113
x2 = 0.203	-0.198	–
x2 = 0.207	–	-0.202
x2 = 0.301	-0.2624	–
x2 = 0.307	–	-0.266
x2 = 0.4	-0.2949	–
x2 = 0.407	–	-0.2985
x2 = 0.5	-0.3021	–
x2 = 0.507	–	-0.3043
x2 = 0.601	-0.2825	–
x2 = 0.607	–	-0.2837
x2 = 0.702	-0.238	–
x2 = 0.708	–	-0.238
x2 = 0.805	-0.175	–
x2 = 0.808	–	-0.174
x2 = 0.909	-0.0935	-0.0927
x2 = 0.95	–	-0.0523
x2 = 0.961	-0.0433	–
x2 = 0.97	–	-0.0344

ClCCCCCl [1,4-dichlorobutane]
Conditions	mass density [kg/m3]
[1]	1133.63

Conditions	vapor or sublimation pressure [kPa]
[1], 323.15 K	2.205

ClCCCCCl [1,4-dichlorobutane] + CN1CCCC1=O
[2]
Conditions	excess molar enthalpy [kcal/mol]
298.15 K, x2 = 0.064	-0.0301
298.15 K, x2 = 0.113	-0.0535
298.15 K, x2 = 0.21	-0.097
298.15 K, x2 = 0.308	-0.131
298.15 K, x2 = 0.406	-0.152
298.15 K, x2 = 0.505	-0.162
298.15 K, x2 = 0.604	-0.158
298.15 K, x2 = 0.703	-0.139
298.15 K, x2 = 0.803	-0.107
298.15 K, x2 = 0.903	-0.0605
298.15 K, x2 = 0.954	-0.032
308.15 K, x2 = 0.06	-0.028
308.15 K, x2 = 0.109	-0.0523
308.15 K, x2 = 0.207	-0.0942
308.15 K, x2 = 0.305	-0.125
308.15 K, x2 = 0.403	-0.147
308.15 K, x2 = 0.501	-0.156
308.15 K, x2 = 0.599	-0.152
308.15 K, x2 = 0.698	-0.135
308.15 K, x2 = 0.797	-0.103
308.15 K, x2 = 0.895	-0.0586
308.15 K, x2 = 0.945	-0.0294
308.15 K, x2 = 0.964	-0.0189

ClCCCCCCCl [1,6-dichlorohexane]
Conditions	mass density [kg/m3]
[1]	1063.7

ClCCCCCCCl [1,6-dichlorohexane] + CN1CCCC1=O
excess molar enthalpy [kcal/mol], [2]
Conditions	298.15 K	308.15 K
x2 = 0.041	–	-0.0055
x2 = 0.06	–	-0.00789
x2 = 0.068	-0.0108	–
x2 = 0.109	–	-0.0148
x2 = 0.116	-0.0191	–
x2 = 0.207	–	-0.0244
x2 = 0.212	-0.0311	–
x2 = 0.305	–	-0.0325
x2 = 0.309	-0.0404	–
x2 = 0.403	–	-0.037
x2 = 0.405	-0.0457	–
x2 = 0.502	–	-0.0387
x2 = 0.503	-0.0478	–
x2 = 0.6	-0.0457	-0.0363
x2 = 0.699	-0.0394	-0.032
x2 = 0.797	-0.0294	–
x2 = 0.799	–	-0.0241
x2 = 0.896	-0.0155	–
x2 = 0.898	–	-0.0127
x2 = 0.946	-0.00765	–
x2 = 0.948	–	-0.00598
x2 = 0.968	–	-0.00335

CCCCCl [1-chlorobutane]
Conditions	mass density [kg/m3]
[1]	880.72

Conditions	vapor or sublimation pressure [kPa]
[1], 313.15 K	25.72

CCCCCl [1-chlorobutane] + CN1CCCC1=O
[2]
Conditions	excess molar enthalpy [kcal/mol]
298.15 K, x2 = 0.063	0.00454
298.15 K, x2 = 0.113	0.0098
298.15 K, x2 = 0.213	0.0194
298.15 K, x2 = 0.312	0.027
298.15 K, x2 = 0.411	0.0327
298.15 K, x2 = 0.51	0.0363
298.15 K, x2 = 0.608	0.037
298.15 K, x2 = 0.706	0.0347
298.15 K, x2 = 0.804	0.0284
298.15 K, x2 = 0.901	0.0167
298.15 K, x2 = 0.949	0.00908
308.15 K, x2 = 0.06	0.00813
308.15 K, x2 = 0.11	0.0153
308.15 K, x2 = 0.208	0.0275
308.15 K, x2 = 0.307	0.0363
308.15 K, x2 = 0.406	0.0421
308.15 K, x2 = 0.504	0.0457
308.15 K, x2 = 0.603	0.0457
308.15 K, x2 = 0.701	0.0421
308.15 K, x2 = 0.799	0.0339
308.15 K, x2 = 0.897	0.0198
308.15 K, x2 = 0.946	0.011
308.15 K, x2 = 0.965	0.00598

CCCCCCCl [1-chlorohexane]
Conditions	mass density [kg/m3]
[1]	873.21

Conditions	vapor or sublimation pressure [kPa]
[1], 313.15 K	2.857

CCCCCCCl [1-chlorohexane] + CN1CCCC1=O
excess molar enthalpy [kcal/mol], [2]
Conditions	298.15 K	308.15 K
x2 = 0.062	–	0.0165
x2 = 0.064	0.0127	–
x2 = 0.111	–	0.0349
x2 = 0.113	0.0287	–
x2 = 0.208	–	0.0652
x2 = 0.21	0.0554	–
x2 = 0.306	–	0.0891
x2 = 0.308	0.0774	–
x2 = 0.404	–	0.104
x2 = 0.406	0.0913	–
x2 = 0.502	–	0.112
x2 = 0.503	0.0994	–
x2 = 0.601	0.1	0.112
x2 = 0.699	0.093	0.103
x2 = 0.797	0.0762	–
x2 = 0.798	–	0.0841
x2 = 0.895	0.0466	–
x2 = 0.897	–	0.0507
x2 = 0.944	0.0265	–
x2 = 0.947	–	0.027
x2 = 0.967	–	0.0174

CCCCCCCCCl [1-chlorooctane]
Conditions	mass density [kg/m3]
[1]	868.98

CCCCCCCCCl [1-chlorooctane] + CN1CCCC1=O
[2]
Conditions	excess molar enthalpy [kcal/mol]
298.15 K, x2 = 0.073	0.0229
298.15 K, x2 = 0.121	0.0473
298.15 K, x2 = 0.217	0.0887
298.15 K, x2 = 0.314	0.12
298.15 K, x2 = 0.411	0.141
298.15 K, x2 = 0.507	0.152
298.15 K, x2 = 0.604	0.154
298.15 K, x2 = 0.701	0.143
298.15 K, x2 = 0.798	0.12
298.15 K, x2 = 0.895	0.076
298.15 K, x2 = 0.943	0.0423
308.15 K, x2 = 0.068	0.0268
308.15 K, x2 = 0.116	0.0533
308.15 K, x2 = 0.213	0.098
308.15 K, x2 = 0.309	0.132
308.15 K, x2 = 0.406	0.155
308.15 K, x2 = 0.504	0.167
308.15 K, x2 = 0.602	0.1678
308.15 K, x2 = 0.7	0.156
308.15 K, x2 = 0.799	0.129
308.15 K, x2 = 0.898	0.081
308.15 K, x2 = 0.948	0.0449
308.15 K, x2 = 0.968	0.0263

CN1CCCC1=O [N-methylpyrrolidone]
Conditions	mass density [kg/m3]
[1]	1028.55
